Reference: publication PMC9329436, “Optimization of the 4-anilinoquin(az)oline scaffold as epidermal growth factor receptor (EGFR) inhibitors for chordoma utilizing a toxicology profiling assay platform” (Scientific Reports, 2022)
Read-outs that look alike come from different tables or passages of the source.

Key:
Type in all cases: biochemical
[1] = molecular target: 320 wild-type protein kinases (Homo sapiens, UniProt O43293); conditions: singlicate
Text: (§1) Table S4. Profiling of two compounds at two concentrations against 320 wild-type protein kinases; singlicate measurement; Residual activities (% of control).

[2] = molecular target: 320 wild-type protein kinases (Homo sapiens, UniProt P42345); conditions: mTOR, singlicate
Text: as §1

[3] = molecular target: 320 wild-type protein kinases (Homo sapiens, UniProt P09619); conditions: PDGFR-beta, singlicate
320 wild-type protein kinases (Homo sapiens, UniProt P09619), sequence (P09619 33-1106): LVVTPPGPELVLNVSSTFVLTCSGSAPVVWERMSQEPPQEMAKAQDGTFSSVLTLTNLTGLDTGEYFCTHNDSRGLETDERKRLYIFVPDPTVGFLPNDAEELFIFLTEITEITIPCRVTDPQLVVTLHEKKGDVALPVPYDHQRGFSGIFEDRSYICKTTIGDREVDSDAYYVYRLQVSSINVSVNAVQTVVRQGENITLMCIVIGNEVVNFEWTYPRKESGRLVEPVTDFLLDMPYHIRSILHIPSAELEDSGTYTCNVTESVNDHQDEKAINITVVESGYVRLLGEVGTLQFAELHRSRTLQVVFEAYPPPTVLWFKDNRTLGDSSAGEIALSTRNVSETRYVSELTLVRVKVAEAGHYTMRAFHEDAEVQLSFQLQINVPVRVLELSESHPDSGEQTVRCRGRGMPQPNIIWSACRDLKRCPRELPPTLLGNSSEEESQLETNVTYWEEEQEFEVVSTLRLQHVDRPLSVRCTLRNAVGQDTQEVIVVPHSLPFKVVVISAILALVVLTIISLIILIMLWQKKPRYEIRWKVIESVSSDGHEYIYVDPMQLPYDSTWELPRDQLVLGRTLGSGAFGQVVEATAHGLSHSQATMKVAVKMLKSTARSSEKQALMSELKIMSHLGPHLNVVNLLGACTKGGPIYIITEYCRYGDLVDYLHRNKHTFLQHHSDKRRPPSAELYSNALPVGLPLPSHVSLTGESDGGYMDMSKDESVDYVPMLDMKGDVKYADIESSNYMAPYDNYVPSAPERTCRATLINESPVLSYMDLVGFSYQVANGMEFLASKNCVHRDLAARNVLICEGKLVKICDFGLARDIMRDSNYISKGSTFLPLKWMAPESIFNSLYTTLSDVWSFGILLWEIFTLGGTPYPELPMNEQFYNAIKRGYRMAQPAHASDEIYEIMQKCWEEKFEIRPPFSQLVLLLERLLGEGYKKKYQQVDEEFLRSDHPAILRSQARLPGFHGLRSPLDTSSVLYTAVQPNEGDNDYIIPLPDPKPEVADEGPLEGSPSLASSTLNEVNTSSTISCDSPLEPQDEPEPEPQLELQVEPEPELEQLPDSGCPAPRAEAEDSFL
Text: as §1

[4] = molecular target: T1, 320 wild-type protein kinases (Homo sapiens, UniProt Q92630); conditions: singlicate
T1 sequence (Q92630 1-601): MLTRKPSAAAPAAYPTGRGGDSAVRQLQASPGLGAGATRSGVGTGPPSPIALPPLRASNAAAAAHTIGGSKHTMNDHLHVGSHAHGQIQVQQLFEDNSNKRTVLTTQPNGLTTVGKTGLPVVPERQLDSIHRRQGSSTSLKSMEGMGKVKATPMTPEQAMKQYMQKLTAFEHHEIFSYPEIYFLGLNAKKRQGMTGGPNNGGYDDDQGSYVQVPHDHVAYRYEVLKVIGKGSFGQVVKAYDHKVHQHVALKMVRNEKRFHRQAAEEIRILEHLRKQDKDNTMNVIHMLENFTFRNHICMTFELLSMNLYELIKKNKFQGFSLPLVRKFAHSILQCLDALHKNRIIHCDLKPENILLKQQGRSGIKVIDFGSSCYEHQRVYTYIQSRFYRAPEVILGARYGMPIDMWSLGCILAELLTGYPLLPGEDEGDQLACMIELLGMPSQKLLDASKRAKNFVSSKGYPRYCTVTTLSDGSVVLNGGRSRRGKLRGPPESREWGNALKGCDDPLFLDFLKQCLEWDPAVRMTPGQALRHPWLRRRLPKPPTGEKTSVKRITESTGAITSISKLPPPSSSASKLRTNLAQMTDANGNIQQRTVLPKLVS
Text: as §1

[5] = molecular target: 320 wild-type protein kinases (Homo sapiens, UniProt Q15759); conditions: p38-beta, singlicate
320 wild-type protein kinases (Homo sapiens, UniProt Q15759), sequence (Q15759 whole entry): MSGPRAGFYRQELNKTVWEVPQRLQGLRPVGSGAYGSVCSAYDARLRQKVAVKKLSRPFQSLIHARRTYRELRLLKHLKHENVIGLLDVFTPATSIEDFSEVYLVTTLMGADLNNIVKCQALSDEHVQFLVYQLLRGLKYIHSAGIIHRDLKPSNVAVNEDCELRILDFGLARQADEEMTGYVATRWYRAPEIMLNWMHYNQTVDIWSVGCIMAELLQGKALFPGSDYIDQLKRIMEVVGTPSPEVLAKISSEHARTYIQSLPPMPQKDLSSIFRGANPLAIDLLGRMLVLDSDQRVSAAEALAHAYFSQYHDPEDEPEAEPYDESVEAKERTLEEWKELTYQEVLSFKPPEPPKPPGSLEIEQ
Text: as §1

[6] = molecular target: T2, 320 wild-type protein kinases (Homo sapiens, UniProt Q9NZJ5); conditions: singlicate
T2 sequence (Q9NZJ5 30-1116): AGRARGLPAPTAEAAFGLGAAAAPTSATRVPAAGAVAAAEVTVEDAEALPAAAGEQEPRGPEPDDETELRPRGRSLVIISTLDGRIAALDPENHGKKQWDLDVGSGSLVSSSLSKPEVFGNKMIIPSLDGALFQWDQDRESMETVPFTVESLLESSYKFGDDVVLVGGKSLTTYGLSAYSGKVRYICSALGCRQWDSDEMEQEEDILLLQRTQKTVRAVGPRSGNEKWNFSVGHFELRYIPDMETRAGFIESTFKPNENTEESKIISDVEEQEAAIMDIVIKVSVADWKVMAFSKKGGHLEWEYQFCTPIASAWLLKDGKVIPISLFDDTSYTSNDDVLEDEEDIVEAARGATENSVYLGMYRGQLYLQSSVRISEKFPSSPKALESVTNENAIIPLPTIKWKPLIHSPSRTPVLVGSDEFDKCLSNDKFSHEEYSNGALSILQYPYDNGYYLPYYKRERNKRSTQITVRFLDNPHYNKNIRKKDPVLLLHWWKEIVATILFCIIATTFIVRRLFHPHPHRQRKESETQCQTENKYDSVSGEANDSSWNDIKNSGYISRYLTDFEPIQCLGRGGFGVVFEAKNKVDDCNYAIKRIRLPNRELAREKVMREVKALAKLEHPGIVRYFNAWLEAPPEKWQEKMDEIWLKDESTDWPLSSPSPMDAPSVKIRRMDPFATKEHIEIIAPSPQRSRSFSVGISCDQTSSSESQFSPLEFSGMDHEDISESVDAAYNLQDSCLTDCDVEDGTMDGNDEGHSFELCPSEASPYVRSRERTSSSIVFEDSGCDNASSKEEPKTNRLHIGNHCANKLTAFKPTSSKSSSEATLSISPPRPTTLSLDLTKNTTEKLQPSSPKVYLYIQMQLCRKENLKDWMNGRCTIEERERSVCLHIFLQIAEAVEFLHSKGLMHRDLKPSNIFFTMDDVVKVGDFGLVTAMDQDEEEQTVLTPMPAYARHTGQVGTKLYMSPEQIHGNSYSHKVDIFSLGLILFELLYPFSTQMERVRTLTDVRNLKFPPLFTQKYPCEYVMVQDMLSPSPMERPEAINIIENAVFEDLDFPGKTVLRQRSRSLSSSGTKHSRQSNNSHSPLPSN
Text: as §1

[7] = molecular target: 320 wild-type protein kinases (Homo sapiens, UniProt Q8TDX7); conditions: singlicate
320 wild-type protein kinases (Homo sapiens, UniProt Q8TDX7), sequence (Q8TDX7 whole entry): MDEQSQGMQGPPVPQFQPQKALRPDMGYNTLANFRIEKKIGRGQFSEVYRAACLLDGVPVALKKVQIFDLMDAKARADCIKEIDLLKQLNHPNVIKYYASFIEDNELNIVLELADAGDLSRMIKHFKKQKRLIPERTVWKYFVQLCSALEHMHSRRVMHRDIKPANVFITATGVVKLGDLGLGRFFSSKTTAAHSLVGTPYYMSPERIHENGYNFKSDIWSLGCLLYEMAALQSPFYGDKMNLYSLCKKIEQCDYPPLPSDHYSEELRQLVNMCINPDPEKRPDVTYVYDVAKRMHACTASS
Text: as §1

[8] = molecular target: 320 wild-type protein kinases (Homo sapiens, UniProt P17612); conditions: PKA, singlicate
Text: as §1

[9] = molecular target: 320 wild-type protein kinases (Homo sapiens, UniProt Q9P286); conditions: singlicate
320 wild-type protein kinases (Homo sapiens, UniProt Q9P286), sequence (Q9P286 whole entry): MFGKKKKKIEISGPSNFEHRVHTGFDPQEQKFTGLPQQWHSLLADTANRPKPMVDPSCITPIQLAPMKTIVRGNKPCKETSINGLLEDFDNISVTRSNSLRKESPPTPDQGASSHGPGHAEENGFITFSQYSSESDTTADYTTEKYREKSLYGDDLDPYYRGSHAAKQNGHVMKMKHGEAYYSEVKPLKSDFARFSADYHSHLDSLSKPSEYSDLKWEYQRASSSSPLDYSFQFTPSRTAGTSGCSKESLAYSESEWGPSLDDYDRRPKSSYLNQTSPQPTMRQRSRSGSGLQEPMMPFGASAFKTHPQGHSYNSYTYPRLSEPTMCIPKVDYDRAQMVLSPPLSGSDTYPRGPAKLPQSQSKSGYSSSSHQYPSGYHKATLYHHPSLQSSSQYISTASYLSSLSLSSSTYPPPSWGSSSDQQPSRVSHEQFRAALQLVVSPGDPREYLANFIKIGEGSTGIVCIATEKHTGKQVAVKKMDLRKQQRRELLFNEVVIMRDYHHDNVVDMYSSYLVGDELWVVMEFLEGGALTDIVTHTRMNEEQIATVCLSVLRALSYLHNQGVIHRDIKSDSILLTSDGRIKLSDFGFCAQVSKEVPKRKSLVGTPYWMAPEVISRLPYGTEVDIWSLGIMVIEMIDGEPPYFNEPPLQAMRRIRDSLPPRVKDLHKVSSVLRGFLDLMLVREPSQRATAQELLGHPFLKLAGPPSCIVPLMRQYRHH
Text: as §1

[10] = molecular target: 320 wild-type protein kinases (Homo sapiens, UniProt P24941); conditions: singlicate
Text: as §1

[11] = molecular target: 320 wild-type protein kinases (Homo sapiens, UniProt Q5TCY1); conditions: kinase TTBK1, singlicate
320 wild-type protein kinases (Homo sapiens, UniProt Q5TCY1), sequence (Q5TCY1 whole entry): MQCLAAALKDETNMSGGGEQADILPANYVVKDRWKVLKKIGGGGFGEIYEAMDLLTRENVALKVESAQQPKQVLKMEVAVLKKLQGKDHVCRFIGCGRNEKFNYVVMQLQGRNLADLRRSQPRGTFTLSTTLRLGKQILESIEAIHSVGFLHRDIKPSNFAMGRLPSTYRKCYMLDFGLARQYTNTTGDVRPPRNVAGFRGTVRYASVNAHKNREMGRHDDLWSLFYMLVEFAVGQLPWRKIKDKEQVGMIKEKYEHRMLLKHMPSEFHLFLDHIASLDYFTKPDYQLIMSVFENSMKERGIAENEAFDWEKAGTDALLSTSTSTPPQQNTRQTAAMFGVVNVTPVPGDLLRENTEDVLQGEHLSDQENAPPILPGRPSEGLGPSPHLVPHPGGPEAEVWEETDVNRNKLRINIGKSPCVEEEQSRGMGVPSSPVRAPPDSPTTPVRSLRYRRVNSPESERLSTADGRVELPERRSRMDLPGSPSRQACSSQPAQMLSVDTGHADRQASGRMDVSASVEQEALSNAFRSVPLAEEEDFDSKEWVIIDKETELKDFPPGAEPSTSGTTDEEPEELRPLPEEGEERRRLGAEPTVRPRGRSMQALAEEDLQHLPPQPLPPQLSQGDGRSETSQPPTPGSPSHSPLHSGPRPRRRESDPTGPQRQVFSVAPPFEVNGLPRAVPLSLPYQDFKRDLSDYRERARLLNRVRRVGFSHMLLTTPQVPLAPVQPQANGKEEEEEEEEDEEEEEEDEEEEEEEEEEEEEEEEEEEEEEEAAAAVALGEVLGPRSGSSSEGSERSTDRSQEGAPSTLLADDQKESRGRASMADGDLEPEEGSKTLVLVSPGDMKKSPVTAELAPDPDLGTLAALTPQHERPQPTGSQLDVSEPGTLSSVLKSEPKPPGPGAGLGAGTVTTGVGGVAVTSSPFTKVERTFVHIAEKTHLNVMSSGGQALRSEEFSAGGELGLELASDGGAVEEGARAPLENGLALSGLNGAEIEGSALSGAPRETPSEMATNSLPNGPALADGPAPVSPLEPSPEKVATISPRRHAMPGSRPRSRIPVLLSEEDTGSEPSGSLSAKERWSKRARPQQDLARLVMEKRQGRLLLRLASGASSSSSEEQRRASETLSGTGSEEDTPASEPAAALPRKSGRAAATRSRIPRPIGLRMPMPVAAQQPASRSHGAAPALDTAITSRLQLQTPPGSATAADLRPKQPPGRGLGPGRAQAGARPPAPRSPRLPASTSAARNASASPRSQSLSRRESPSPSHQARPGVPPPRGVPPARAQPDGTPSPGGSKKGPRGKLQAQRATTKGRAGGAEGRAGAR
Text: as §1

[12] = molecular target: 320 wild-type protein kinases (Homo sapiens, UniProt Q9P289); conditions: singlicate
320 wild-type protein kinases (Homo sapiens, UniProt Q9P289), sequence (Q9P289 whole entry): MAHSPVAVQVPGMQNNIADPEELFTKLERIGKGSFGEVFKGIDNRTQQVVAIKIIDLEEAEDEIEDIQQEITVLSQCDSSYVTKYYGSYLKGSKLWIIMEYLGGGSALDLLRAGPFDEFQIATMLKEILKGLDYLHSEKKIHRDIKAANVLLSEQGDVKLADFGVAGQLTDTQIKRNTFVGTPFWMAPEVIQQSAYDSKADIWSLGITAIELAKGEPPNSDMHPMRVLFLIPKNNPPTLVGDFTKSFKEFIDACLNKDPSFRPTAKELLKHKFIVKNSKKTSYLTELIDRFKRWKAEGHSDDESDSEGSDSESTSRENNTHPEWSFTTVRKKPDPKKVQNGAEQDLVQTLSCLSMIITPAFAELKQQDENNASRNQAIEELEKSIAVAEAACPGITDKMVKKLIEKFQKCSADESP
Text: as §1

[13] = molecular target: 320 wild-type protein kinases (Homo sapiens, UniProt P43405); conditions: kinase SYK aa1-635, singlicate
Text: as §1

320 wild-type protein kinases (Homo sapiens, UniProt O43293), sequence (O43293 whole entry): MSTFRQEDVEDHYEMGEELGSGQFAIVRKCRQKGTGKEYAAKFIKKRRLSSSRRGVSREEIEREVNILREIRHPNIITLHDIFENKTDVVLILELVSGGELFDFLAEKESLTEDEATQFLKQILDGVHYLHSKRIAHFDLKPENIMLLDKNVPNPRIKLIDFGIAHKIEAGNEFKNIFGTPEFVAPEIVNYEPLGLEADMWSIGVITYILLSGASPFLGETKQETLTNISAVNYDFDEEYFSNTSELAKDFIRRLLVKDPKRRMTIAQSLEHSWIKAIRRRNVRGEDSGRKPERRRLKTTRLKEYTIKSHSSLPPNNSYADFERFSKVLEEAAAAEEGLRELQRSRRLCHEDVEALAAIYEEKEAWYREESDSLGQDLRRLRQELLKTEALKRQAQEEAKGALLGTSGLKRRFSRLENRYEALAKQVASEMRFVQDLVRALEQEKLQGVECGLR

Row | Structure (SMILES) | Residual activity ([1]; DAPK3, 1.0E-06 M) | Residual activity ([1]; DAPK3, 1.0E-07 M) | Residual activity ([2]; 1.0E-06 M) | Residual activity ([2]; 1.0E-07 M) | Residual activity ([3]; 1.0E-06 M) | Residual activity ([3]; 1.0E-07 M) | Residual activity ([4]; DYRK2, 1.0E-06 M) | Residual activity ([4]; DYRK2, 1.0E-07 M) | Residual activity ([5]; 1.0E-06 M) | Residual activity ([5]; 1.0E-07 M) | Residual activity ([6]; EIF2AK3, 1.0E-06 M) | Residual activity ([6]; EIF2AK3, 1.0E-07 M) | Residual activity ([7]; NEK7, 1.0E-06 M) | Residual activity ([7]; NEK7, 1.0E-07 M) | Residual activity ([8]; 1.0E-06 M) | Residual activity ([8]; 1.0E-07 M) | Residual activity ([9]; PAK7, 1.0E-06 M) | Residual activity ([9]; PAK7, 1.0E-07 M) | Residual activity ([10]; CDK2/CycA2, 1.0E-06 M) | Residual activity ([10]; CDK2/CycA2, 1.0E-07 M) | further results
1 | C#Cc1cc(Nc2ncnc3cc(OC)c(OC)cc23)ccc1Cl [Compound 45] | 114 % of control | 112 % of control | 91 % of control | 106 % of control | 95 % of control | 107 % of control | 71 % of control | 89 % of control | 87 % of control | 90 % of control | 82 % of control | 90 % of control | 107 % of control | 117 % of control | 90 % of control | 93 % of control | 91 % of control | 99 % of control | 97 % of control | 95 % of control | Residual activity ([10]; CDK2/CycE1, 1.0E-06 M): 86 % of control; Residual activity ([10]; CDK2/CycE1, 1.0E-07 M): 91 % of control; Residual activity, TTBK1 ([11]; assay conc. 1.0E-06 M): 101 % of control; Residual activity, TTBK1 ([11]; assay conc. 1.0E-07 M): 109 % of control; Residual activity ([12]; MST4, 1.0E-06 M): 97 % of control; Residual activity ([12]; MST4, 1.0E-07 M): 92 % of control; Residual activity, SYK aa1-635 ([13]; assay conc. 1.0E-06 M): 104 % of control; Residual activity, SYK aa1-635 ([13]; assay conc. 1.0E-07 M): 105 % of control
2 | C#Cc1cc(Nc2ncnc3cc(I)ccc23)ccc1Cl [Compound 41] | 109 % of control | 110 % of control | 84 % of control | 97 % of control | 98 % of control | 114 % of control | 61 % of control | 84 % of control | 84 % of control | 82 % of control | 95 % of control | 86 % of control | 101 % of control | 129 % of control | 82 % of control | 88 % of control | 81 % of control | 108 % of control | 90 % of control | 88 % of control | Residual activity ([10]; CDK2/CycE1, 1.0E-06 M): 76 % of control; Residual activity ([10]; CDK2/CycE1, 1.0E-07 M): 97 % of control; Residual activity, TTBK1 ([11]; assay conc. 1.0E-06 M): 102 % of control; Residual activity, TTBK1 ([11]; assay conc. 1.0E-07 M): 113 % of control; Residual activity ([12]; MST4, 1.0E-06 M): 89 % of control; Residual activity ([12]; MST4, 1.0E-07 M): 101 % of control; Residual activity, SYK aa1-635 ([13]; assay conc. 1.0E-06 M): 94 % of control; Residual activity, SYK aa1-635 ([13]; assay conc. 1.0E-07 M): 94 % of control
